Measurements from patent US20240254108A1, “COMPOUND COMPRISING PYRROLIDINE AS LINKER, AND PHARMACEUTICAL COMPOSITION COMPRISING SAME” (BEAD TECH INC., priority 2021, published 2024).

Tested on: factors (genes) causing atopic dermatitis
Experiment: Expression of atopic dermatitis factors (genes) in skin of DNFB-treated mice, real time PCR (Experimental Example 4)
Type: in vivo
Conditions: RNA from skin of DNFB-treated female BALB/C mice, compound 100 μM on skin once a day to day 16; FIGS. 9 to 12
Procedure: For real time PCR, RNA was extracted using RNAiso Plus (TAKARA, Japan) and cDNA was synthesized using a cDNA synthesis kit (TAKARA, JAPAN). The polymerization reaction was carried out using the synthesized cDNA and a Sybr green kit (Enzynomics, Korea). […]

NC(=O)[C@H](Cc1c[nH]cn1)NC(=O)[C@H]1CCCN1C(=O)c1cccc(O)c1O [Example 18]
expression of the factors (genes) causing atopic dermatitis: reduce the expression of the factors (genes)
